Laboratory results taken from patent US20220143183A1, “PHOTOSWITCHABLE PROTACS AND SYNTHESIS AND USES THEREOF” (New York University, priority 2019, published 2022).

Experiments:
[1] = target: BRD4 (Homo sapiens, UniProt O60885); test: Western blot of BRD4 levels in RS4;11 cells; format: cell-based; design: endogenous in cells; host or cells: RS4;11 (ATCC CRL-1873); settings: 4 h
Description: Next, the light dependence of targeted protein degradation was analyzed in RS4;11 cells by western blot analysis of the BET proteins BRD2-4 (FIG. 5). To this end, cells were treated with increasing concentrations of our lead compound, PHOTAC-I-3, for 4 h and pulse-irradiated with 390 nm light (100 ms every 10 s). […] The cereblon-dependent degradation was confirmed by a competition experiment (FIG. 5E), and further validated by siRNA knockdown of cereblon (FIG. 13).
Western Immunoblot Analysis. Rabbit monoclonal Antibodies for BRD4 (#13440), β-Actin (#4970) c-Myc (#5605) and Anti-rabbit IgG, HRP-linked Antibody (#7074) were purchased from Cell Signalling Technologies.
(§1) Cells were incubated with different concentrations of selected compounds. They were placed in a light-proof box and preirradiated for 1 min at 390 nm followed by 100 ms pulses every 10 s or were kept in the dark for 4 h.
(§2) Cultured cells were collected by centrifugation and washed twice with cold PBS. The supernatant was removed and each cell pellet was lysed in 100 μL NP40-Cell-Lysis Buffer+0.1% SDS+1 mM PMSF+ protease inhibitor cocktail (Sigma Aldrich) for 30 min on ice, with vortexing at 10-minute intervals. Afterwards, cells were centrifuged at 13.000 rpm for 10 min at 4° C. Samples were stored on ice and the supernatant was collected for protein concentration determination using a Thermofisher Scientific Pierce™ Coomassie Plus (Bradford) Assay Kit.
(§3) The samples were diluted each with 5 μL Laemmli sample buffer Invitrogen (NuPAGE LDS Sample Buffer 4×) and 1 μL DTT, heated at 95° C. for 5 min. Respectively 20 μL of each sample was loaded in a lane of a Bio-Rad Mini-PROTEAN TGX precast Gel, 4-20%, used with tris-glycine SDS Running buffer. The gel ran 5 min at 50 V, then 35 min at 140 V. Next step was the electrotransfer to a polyvinylidene difluoride (PVDF) membrane which was carried out using an iBlot™ 2 Dry Blotting System set to the standard program. After the transfer, the membrane was washed with 25 mL TB ST for 5 min and subsequent incubated in 25 mL of blocking buffer (1×TBST+5% nonfat dry milk, Blotto, Santa Cruz Biotechnology) for 1 h at room temperature. The membrane was washed three times for 5 min each with 15 mL of TBST and incubated in a 10 mL antibody dilution buffer with gentle agitation at 4° C. overnight (Actin: 1:1000; c-MYC: 1:1000; BRD4: 1:1000). The next day, the membrane was washed again three times for 5 min each with 15 mL TBST, followed by incubation with anti-rabbit, HRP-linked antibody (1:2000) in 10 mL blocking buffer with gentle agitation for 1 h at room temperature. Afterwards, the membrane was washed three times for 5 min each with 15 mL TBST and then incubated in 10 mL of Clarity Max Western ECL Substrate solution for 5 min. Chemoluminescence imaging was performed on a Bio-Rad ChemiDoc™ Imaging System.
(§4) LED illumination. For illumination of the cells we used the cell disco system as previously described in the literature^[25]. 390 nm 5 mm LEDs were purchased from Roithner Lasertechnik. Cells were preirradiated for 1 min at 390 nm, followed by 100 ms pulses every 10 s in 96- or 6-well plates.

[2] = tested on: RS4;11 lymphoblast cells; test: Cell viability assay (Promega MTS), dark or pulsed irradiation; format: cell-based, human; settings: 72 h, dark vs pulsed 390 nm irradiation
Description: Optical control of BRD2-4 with PHOTACs. To assess the biological activity of the PHOTACs, their effect on the viability of RS4;11 lymphoblast cells was tested. Cells were treated in a 96-well plate with increasing concentrations of PHOTACs and were either irradiated with 390 nm light pulses (100 ms every 10 s) for 72 h or incubated with the compound in the dark. Subsequently, cell viability assays (Promega MTS) were performed, as previously described.
Cell culture. The human acute lymphoblastic leukemia RS4;11 (ATCC® CRL-1873™) cell line was purchased from the American Type Culture Collection and cultured in RPMI1640 medium (Gibco) with 10% fetal bovine serum (FBS) and 1% penicillin/streptomycin (PS) in a humidified incubator at 37° C. with 5% CO2 in air. Cells were divided every 2-3 days and the concentration was maintained between 1×10^5 and 1×10^6 cells/mL. For the experiments compounds were serially diluted in RPMI160 without the dye phenol red (Gibco) to reduce the influence of the dye by absorption. Azobenzene stocks and dilutions were strictly kept in the dark and prepared under red light conditions.
Colorimetric MTT Assays. The activity of dehydrogenase enzymes in metabolically active cells, as a quantitative measurement for cytotoxicity and proliferation, was determined by colorimetric measurement of the reduction of [3-(4,5-dimethylthiazol-2-yl)-5-(3-carboxymethoxyphenyl)-2-(4-sulfophenyl)-2H-tetrazolium (MTS) to formazan. The absorbance of formazan at 490 nm was measured on a FLUOstar Omega microplate reader (BMG Labtech).
Cells were treated with different concentrations, ranging from 10 μM to 1 nM, of our compounds and incubated on a 96-well plate for 72 h. They were placed in light-proof boxes and exposed to the lighting conditions specified in the experiment for 72 h. Next, 10 μL of Promega CellTiter 96® AQueous One Solution Reagent was added to each well and incubated for further 4-7 hours. The absorbance at 490 nm was then recorded with a 96-well plate reader.
as §4

[3] = target: T1, FKBP12 (Homo sapiens, UniProt P62942); test: Immunoblot of FKBP12 levels in RS4;11 cells; format: cell-based; settings: for FKBP12 levels: 390 nm pulse irradiation (100 ms every 10 s); for FKBP12 degradation: in the dark; for hook effect in FKBP12 degradation: 4 h, different concentrations; for FKBP12 degradation with MLN4924: in the presence of MLN4924; for light activation among compounds targeting FKBP12: light vs dark
T1 construct: endogenous in cells; host or cells: RS4;11 (ATCC CRL-1873)
Description: FIG. 6 depicts optical control of FKBP12 degradation. A) Immunoblot analysis of FKBP12 after treatment of RS4;11 cells with PHOTAC-II-5 for 4 h at different concentrations. Cells were either irradiated with pulses of 390 nm light (left, 100 ms every 10 s) or kept in the dark (right). B) Time course of FKBP12 degradation visualized by immunoblotting. RS4;11 cells were treated with PHOTAC-II-5 (100 nM) and collected at the indicated time points. C) Immunoblot analysis of FKBP12 after treatment of RS4;11 cells with PHOTAC-II-6 for 4 h at different concentrations. Cells were either irradiated with pulses of 390 nm light (left, 100 ms every 10 s) or kept in the dark (right). D) Time course of FKBP12 degradation visualized by immunoblotting. RS4;11 cells were treated with PHOTAC-II-6 (100 nM) and collected at the indicated time points.
FIG. 15 depicts FKBP12 immunoblots in RS4;11 cells. […] B) Degradation of FKBP12. Immunoblot analysis of FKBP12 after treatment of RS4;11 cells with PHOTAC-II-1 for 4 h at different concentrations. Cells were either irradiated with 100 ms pulses of 390 nm light every 10 s (left) or kept the dark (right). C) Time course of FKBP12 degradation visualized by immunoblotting.
Amongst the molecules tested, PHOTAC-II-5 and PHOTAC-II-6 turned out to be the most useful, and the biological investigations have been focused on these molecules (for PHOTACs-II-1-4, see FIG. 16). […] The degradation was slower than in the case of BET proteins, but between 6 and 12 hours the protein was largely absent from the cell lysates (FIG. 6B). […] The time course of FKBP12 degradation by PHOTAC-II-6 was similar to the one observed with PHOTAC-II-5 (FIG. 6D).
as §1, §2, §3
LED illumination. For illumination of the cells we used the cell disco system as previously described in the literature^[25]. […]

T1 sequence (P62942 whole entry): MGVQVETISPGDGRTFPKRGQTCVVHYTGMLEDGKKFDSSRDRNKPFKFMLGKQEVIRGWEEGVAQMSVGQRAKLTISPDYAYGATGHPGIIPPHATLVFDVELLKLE

Structure (SMILES): COc1cc(/N=N/c2cccc3c2CN(C2CCC(=O)N(C)C2=O)C3=O)cc(OC)c1OCC(=O)NCCCCNC(=O)C[C@@H]1N=C(c2ccc(Cl)cc2)c2c(sc(C)c2C)-n2c(C)nnc21 (stereo partly drawn) [Me-PHOTAC-I-3, 2-((S)-4-(4-chlorophenyl)-2,3,9-trimethyl-6H-thieno[3,2-f][1,2,4]triazolo[4,3-a][1,4]diazepin-6-yl)-N-(4-(2-(2,6-dimethoxy-4-((E)-(2-(1-methyl-2,6-dioxopiperidin-3-yl)-1-oxoisoindolin-4-yl)diazenyl)phenoxy)acetamido)butyl)acetamide]
- BRD4 levels ([1]; 390 nm pulses (100 ms every 10 s)): inactive control

Structure (SMILES): Cc1sc2c(c1C)C(c1ccc(Cl)cc1)=N[C@@H](CC(=O)Nc1ccc(/N=N/c3ccc(NC(=O)COc4cccc5c4C(=O)N(C4CCC(=O)NC4=O)C5=O)cc3)cc1)c1nnc(C)n1-2 (stereo partly drawn) [PHOTAC-I-10, 2-((S)-4-(4-chlorophenyl)-2,3,9-trimethyl-6H-thieno[3,2-f][1,2,4]triazolo[4,3-a][1,4]diazepin-6-yl)-N-(4-((E)-(4-(2-((2-(2,6-dioxopiperidin-3-yl)-1,3-dioxoisoindolin-4-yl)oxy)acetamido)phenyl)diazenyl)phenyl)acetamide]
- concentration at which robust photodegradation of BRD4 was found ([1]; 390 nm pulses): ≤ 10 nM
- hook effect in BRD4 degradation ([1]; different concentrations, 390 nm): clear hook-effect
- light dependence of activity in viability assay [2]: light-dependent behavior

Structure (SMILES): CCC(C)(C)C(=O)C(=O)N1CCCC[C@H]1C(=O)O[C@H](CCc1ccc(OC)c(OC)c1)c1cccc(OCC(=O)NCCCNC(=O)COc2c(OC)cc(/N=N\c3cccc4c3CN(C3CCC(=O)NC3=O)C4=O)cc2OC)c1 (stereo partly drawn) [PHOTAC-II-1, (1R)-3-(3,4-dimethoxyphenyl)-1-(3-(2-((3-(2-(4-((2-(2,6-dioxopiperidin-3-yl)-1-oxoisoindolin-4-yl)diazenyl)-2,6-dimethoxyphenoxy)acetamido)propyl)-amino)-2-oxoethoxy)phenyl)propyl-(2S)-1-(3,3-dimethyl-2-oxopentanoyl)-piperidine-2-carboxylate]
- FKBP12 levels [3]: slow, but sustained FKBP12 degradation over time
- FKBP12 degradation [3]: not when kept in the dark

Structure (SMILES): CCC(C)(C)C(=O)C(=O)N1CCCC[C@H]1C(=O)O[C@H](CCc1ccc(OC)c(OC)c1)c1cccc(OCC(=O)NCCNC(=O)COc2ccc(/N=N\c3cccc4c3CN(C3CCC(=O)NC3=O)C4=O)cc2)c1 (stereo partly drawn) [PHOTAC-II-5, (1R)-3-(3,4-dimethoxyphenyl)-1-(3-(2-((2-(2-(4-((Z)-(2-(2,6-dioxopiperidin-3-yl)-1-oxoisoindolin-4-yl)diazenyl)phenoxy)acetamido)ethyl)amino)-2-oxoethoxy)phenyl)propyl (25)-1-(3,3-dimethyl-2-oxopentanoyl)piperidine-2-carboxylate]
- FKBP12 levels [3]: pronounced effect on FKBP12 levels
- hook effect in FKBP12 degradation [3]: pronounced “hook effect”
- FKBP12 degradation [3]: no degradation could be observed in the dark
- FKBP12 degradation with MLN4924 [3]: inactive
- light activation among compounds targeting FKBP12 [3]: largest light activation

Structure (SMILES): CCC(C)(C)C(=O)C(=O)N1CCCC[C@H]1C(=O)O[C@H](CCc1ccc(OC)c(OC)c1)c1cccc(OCC(=O)Nc2ccc(/N=N/c3ccc(NC(=O)COc4cccc5c4C(=O)N(C4CCC(=O)NC4=O)C5=O)cc3)cc2)c1 (stereo partly drawn) [PHOTAC-II-6, (1R)-3-(3,4-dimethoxyphenyl)-1-(3-(2-((4-((E)-(4-(2-((2-(2,6-dioxopiperidin-3-yl)-1,3-dioxoisoindolin-4-yl)oxy)acetamido)phenyl)diazenyl)phenyl)amino)-2-oxoethoxy)phenyl)propyl (2S)-1-(3,3-dimethyl-2-oxopentanoyl)piperidine-2-carboxylate]
- FKBP12 levels [3]: light-dependent degradation
- hook effect in FKBP12 degradation [3]: pronounced “hook effect”
- FKBP12 degradation [3]: slight dark activity
- FKBP12 degradation with MLN4924 [3]: inactive
- light activation among compounds targeting FKBP12 [3]: largest light activation
